One assay relates to T. solium (cysteine). Briefly: Selectivity test (Steps VI and IX), T. solium cysteine protease. It counts as biochemical, Taenia solium. Here is the method: (§1) In order to perform the assay, the vehicle (for Step VI) or inhibitor (for Step IX) were incubated with the appropriate substrate in the correct assay buffer and allowed to equilibrate. Subsequently, the protease was added, and the assay was allowed to incubate for an appropriate time. The concentrations used in this experiment were as follows: Vehicle was set up at 4 X 10^-5 M in final assay buffer; Inhibitor was set up at 3 X 10^-10 M in the final assay buffer. Preferably the dosages employed should be the minimal amount of vehicle or inhibitor necessary to induce inhibition. […] Substrates were set up based upon the preferred substrate for cleavage of the particular enzyme.
(§2) Positive controls were set up similarly as described for test controls, except that a solvent blank was added in substitution for the inhibitor or vehicle (in a volume equal to the volume of inhibitor or vehicle addition). All of the inhibitors and vehicles could be dissolved in dimethylsulfoxide (DMSO), and therefore, this was the solvent of choice. Negative controls were set up by adding the inhibitor or vehicle and the preferred substrates in a tube without the protease. All potential non-proteolytic liberation of AFC was therefore controlled for in this tube.
(§3) All controls were set up in triplicate, and experiments were repeated a minimum of five times.
(§4) Percent inhibition was calculated as: %Inhibition = ((AFC positive for "SI"−AFC negative for "SI")−(AFC test−AFC negative for "SI"))/(AFC positive for "SI"−AFC negative for "SI") × 100 [formula]
(§5) In this preliminary test, we employed the following human-derived enzymes (with indicated mechanistic class in parentheses): Cathepsin B (cysteine), Cathepsin L (cysteine), Cathepsin H (cysteine), Cathepsin D (aspartic), Trypsin (serine), the purified Taenia solium cysteine protease, and the Taenia solium crude mix. Cathepsin B was prepared in an assay buffer of 10 mM L-cysteine in 0.4 M Citrate buffer, pH 6.1, using Z-ARR-AFC as the cleavage substrate. Cathepsin L was prepared in an assay buffer of 10 mM L-cysteine in 0.4 M Citrate buffer, pH 5.5, using Z-FR-AFC as the cleavage substrate. Cathepsin H was prepared in an assay buffer of 10 mM L-cysteine in 0.15 M PBS buffer, pH 6.8, using L-R-AFC as the cleavage substrate. Cathepsin D was prepared in an assay buffer of 0.15 M PBS, pH 7.1, using Z-RGFFP-AFC as the cleavage substrate. Trypsin was prepared in an assay buffer of 0.15 M PBS, pH 8.0, supplemented with 100 mM CaCl2 and with Z-R-AFC as the cleavage substrate. Enzyme was incubated so that it was at least 50 times less than the concentration of substrate in order to insure saturating conditions.

A further assay relates to Trypsin. Briefly: Selectivity test (Steps VI and IX), Trypsin. As to conditions: pH 8.0, substrate Z-R-AFC. It counts as biochemical, human. Here is the method: as §1, §2, §3, §4, §5
Assay [1] relates to purified Taenia solium cysteine protease. The assay can be described thus: Competitor assay of low Vmax substrates (vehicles) against high Vmax substrate cocktails (Step III), purified protease. As to conditions: for inhibition with the final cocktail (7.4%): 7.4% cocktail (five high Vmax substrates, 1X10^-6 M each); for Ki of vehicle: Dixon plot, data not shown; for inhibition with the 1.4% cocktail: 1.4% cocktail (Z-FR-AFC 1X10^-6 M). It counts as biochemical. How it is done:
The top 1.4% of substrates (out of 67) in the full panel of substrates with the highest Vmax values were chosen to compose a "TOP 1.4% cocktail". (We employed "Vmax" here although Kcat could also be used). Due to the lower number of substrates, a percentage was not chosen for the "BOTTOM %" substrates. Alternately, all substrates which were not cleaved as determined by a value of 10 uM/hr or less, were chosen to be tested in this step for competitive ability. Hereinafter the term "vehicle" will represent low Vmax substrates that were capable of inhibiting cleavage of the percent cocktails. In this instance, we tested for "vehicles" which inhibited cleavage of the TOP 1.4% cocktail (they were delivered into the active site). Based upon our results from Step II, the top 1.4% cocktail was composed of Z-Phe-Arg-AFC, the highest cleaved substrate.
The experiment began with a competitor test between the noncleaved low Vmax substrates and the highest Vmax substrate, Z-Phe-Arg-AFC. Concentrations were varied between the low Vmax substrate and Z-Phe-Arg-AFC, as described above under "refinement of assay" until a relative inhibition profile was obtained.
The mixture was allowed to equilibrate for a period of 30 minutes. Finally, active purified enzyme was added to the tubes at a concentration that was always 50 times less than the concentration of the high and low Vmax substrates, respectively, in order to insure saturation conditions. This concentration varied from purification to purification and the amount added depended upon the yield and specific activity of the purified protease.
Positive controls were set up in a manner similar to that described for test controls, except that solvent was added in substitution for the low Vmax substrate (in a volume equal to the low Vmax volume addition). All of the substrates could be dissolved in dimethylsulfoxide (DMSO), and therefore, this was the solvent of choice. Negative controls were set up by adding the low Vmax and the high Vmax substrate in a tube without the protease. All potential non-proteolytic induced liberation of AFC was therefore controlled for in this tube (a feature which also monitored stability of the AFC substrates, since these substrates will freely liberate AFC when unstable). A tube set was established for this negative control.
All controls were set up in triplicate, and experiments were repeated a minimum of five times. The assays were incubated at 37°C, for 18 hours overnight.
Percent inhibition was calculated as: %Inhibition = ((AFC positive for "Y"−AFC negative for "Y")−(AFC test−AFC negative for "Y"))/(AFC positive for "Y"−AFC negative for "Y") × 100 [formula]
A 2.9% cocktail of the high Vmax substrates was made. This was composed of Z-FR-AFC and the second most cleaved substrate, Z-FAR-AFC. The vehicles promoted from the initial screenings above were again tested for competitive inhibition ability with the new cocktails. Their concentrations were set identically to those which were "fixed" in the previous protocols. In other words, 8X10^-6 M of the vehicle was added to the culture tube with 1X10^-6 M of Z-FR-AFC and 1X10^-6 M of Z-FAR-AFC. Active protease was added last at a concentration that was 50 times less than the concentration of the high Vmax substrate (to ensure saturating conditions).
In similar experimental fashion, a 4.4%, 5.9%, and 7.4% cocktail were tested with each of the promising vehicles. Each increase in the percentage represented an increase by an additional high Vmax substrate. Each of the individual components in the cocktail were added at 1X10^-6 M each, to 8X10^-6 M of the vehicle. The composition of the cocktails was as follows: 4.4% cocktail: Z-FR-AFC, Z-FAR-AFC, and Z-AAK-AFC (third highest cleaved substrate); 5.9% cocktail: Z-FR-AFC, Z-FAR-AFC, Z-AAK-AFC, and AP-AFC (fourth highest cleaved substrate); 7.4% cocktail: […], Z-FAR-AFC, Z-AAK-AFC, AP-AFC, and Z-VLR-AFC. […]

Residues, ends and D or L forms follow the SMILES beside them. *: point of attachment. AFC = O=c1cc(C(F)(F)F)c2ccc(N*)cc2o1; Cbz = O=C(OCc1ccccc1)*; CH2F = FC*

Consider Mu-Leu-Tyr-AFC [Mu-LY-AFC], for which the % inhibition (as a rule, the percentage by which the read-out fell short of the control) in the assay on T. solium (cysteine) (vehicle 4 X 10^-5 M) was found to be 75%; with Trypsin (vehicle 4 X 10^-5 M, 40 µM), 0%. Further, in assay [1] (vehicle 8X10^-6 M), the “inhibition with the final cocktail (7.4%)” value (“inhibition … (7.4%)” for short) is ≥ 50%. In assay [1], the Ki of vehicle entry is recorded as “low Ki value”. The “V Value” in assay [1] (V = P * M, P inhibition with first (1.4%) cocktail, M with last (7.4%) cocktail, vehicle 8X10^-6 M, each cocktail substrate 1X10^-6 M) amounted to 0.450.
With `CC(C)C[C@H](NC(=O)OCc1ccccc1)C(=O)N[C@@H](CC(C)C)C(=O)N[C@@H](Cc1ccc(O)cc1)C(=O)Nc1ccc2c(C(F)(F)F)cc(=O)oc2c1` [Z-LLY-AFC, Z-Leu-Leu-Tyr-AFC] (Cbz-Leu-Leu-Tyr-{AFC}), the “% inhibition” value in the assay on T. solium (cysteine) (vehicle 4 X 10^-5 M) is 70%. The “% inhibition” value in the assay on Trypsin (vehicle 4 X 10^-5 M, 40 µM) was determined as 0%. In addition, in assay [1] (vehicle 8X10^-6 M), the “inhibition with the 1.4% cocktail” value is listed as “greater than 20%” and the “inhibition … (7.4%)” value is reported as ≥ 50%. Moreover, the Ki of vehicle result in assay [1] is listed as “low Ki value”.
Consider `CC(C)C[C@H](NC(=O)OCc1ccccc1)C(=O)N[C@@H](CC(C)C)C(=O)N[C@@H](CC(C)C)C(=O)Nc1ccc2c(C(F)(F)F)cc(=O)oc2c1` [Z-LLL-AFC, Z-Leu-Leu-Leu-AFC] (Cbz-Leu-Leu-Leu-{AFC}), for which the “% inhibition” value with T. solium (cysteine) (vehicle 4 X 10^-5 M) amounted to 68%. Besides, the “% inhibition” value in the assay with Trypsin (vehicle 4 X 10^-5 M, 40 µM) was 0%. In addition, in assay [1] (vehicle 8X10^-6 M), the “inhibition with the 1.4% cocktail” value is recorded as “greater than 20%” and the “inhibition … (7.4%)” value is ≥ 50%. In addition, the Ki of vehicle entry in assay [1] is given as “low Ki value”.
As for `CC(C)C[C@H](NC(=O)OCc1ccccc1)C(=O)N[C@@H](CC(C)C)C(=O)N[C@@H](Cc1ccc(O)cc1)C(=O)CF` [Z-LLY-FMK, Z-Leu-Leu-Tyr-FMK] (Cbz-Leu-Leu-Tyr-CH2F), the “% inhibition” value worked out at 62% in the assay on T. solium (cysteine) (inhibitor 3 X 10^-10 M) and 0% with Trypsin (inhibitor 3 X 10^-10 M, 0.0003 µM).

Values taken from patent EP1379634B1 (THE UNIVERSITY OF GEORGIA RESEARCH FOUNDATION, INC., priority 2001, dated 2002).
